In PubChem BioAssay (NCI):
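Results reflect a 48-hour exposure of cells in 96-well plates to compound at five concentrations. At the GI50, growth is halved. The concentration for full growth arrest is given as TGI.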

Experiments:
Assay in all cases: DTP human tumour cell line panel, 48 h
[1] = test system: 786-0 renal
[2] = test system: DU-145 prostate
[3] = test system: HCT-116 colon
[4] = test system: HOP-92 NSCLC
[5] = test system: IGROV1 ovarian
[6] = test system: MALME-3M melanoma
[7] = test system: OVCAR-8 ovarian
[8] = test system: SF-295 CNS
[9] = test system: SR leukemia
[10] = test system: U251 CNS

SMILES	GI50 [1]	GI50 [2]	TGI [2]	GI50 [3]	TGI [3]	GI50 [4]	GI50 [5]	TGI [5]	GI50 [6]	TGI [6]	GI50 [7]	GI50 [8]	TGI [8]	GI50 [9]	GI50 [10]	TGI [10]	TGI [1]	TGI [4]	TGI [7]	TGI [9]
NC(=S)c1cn(C2OC(CO)C(O)C2O)c2ncnc(N)c12 (stereo unspecified)	356 nM	217 nM	5440 nM	87.6 nM	> 33900 nM	154 nM	136 nM	586 nM	27.9 nM	125 nM	209 nM	287 nM	3070 nM	62.5 nM	292 nM	8710 nM				
O=C1c2ccccc2-c2c1c1ccccc1c(=O)n2CCCNCCO	234 nM	189 nM	4720 nM	298 nM	3530 nM	357 nM	501 nM	3760 nM	511 nM	1930 nM	239 nM	568 nM	4020 nM	86 nM	302 nM	5610 nM	10900 nM	2610 nM	11600 nM	618 nM
CC1CCCc2c(CC3CC(=O)NC(=O)C3)nc(N)nc21 (stereo unspecified)			> 100000 nM		> 100000 nM			> 100000 nM		> 100000 nM			> 100000 nM			> 100000 nM	> 100000 nM	> 100000 nM	> 100000 nM	> 100000 nM
